ChEMBL document CHEMBL6071190, “Discovery of BAY 2666605, a Molecular Glue for PDE3A and SLFN12” (ACS Med Chem Lett, 2024)

Tests used:
HeLa = assay: Antiproliferative activity against human HeLa cells incubated for 72 hrs by Cell Titer Glo luminescence assay; format: functional, cell-based
[1] = target: cGMP-inhibited 3',5'-cyclic phosphodiesterase 3A (Homo sapiens, UniProt Q14432); assay: Inhibition of human full-length PDE3A expressed in Sf9 cells using [8-3H]adenosine 3', 5'-cyclic phosphate as substrate incubated for 60 mins by microbeta scintillation counting method
Chain of cGMP-inhibited 3',5'-cyclic phosphodiesterase 3A (Q14432 whole entry): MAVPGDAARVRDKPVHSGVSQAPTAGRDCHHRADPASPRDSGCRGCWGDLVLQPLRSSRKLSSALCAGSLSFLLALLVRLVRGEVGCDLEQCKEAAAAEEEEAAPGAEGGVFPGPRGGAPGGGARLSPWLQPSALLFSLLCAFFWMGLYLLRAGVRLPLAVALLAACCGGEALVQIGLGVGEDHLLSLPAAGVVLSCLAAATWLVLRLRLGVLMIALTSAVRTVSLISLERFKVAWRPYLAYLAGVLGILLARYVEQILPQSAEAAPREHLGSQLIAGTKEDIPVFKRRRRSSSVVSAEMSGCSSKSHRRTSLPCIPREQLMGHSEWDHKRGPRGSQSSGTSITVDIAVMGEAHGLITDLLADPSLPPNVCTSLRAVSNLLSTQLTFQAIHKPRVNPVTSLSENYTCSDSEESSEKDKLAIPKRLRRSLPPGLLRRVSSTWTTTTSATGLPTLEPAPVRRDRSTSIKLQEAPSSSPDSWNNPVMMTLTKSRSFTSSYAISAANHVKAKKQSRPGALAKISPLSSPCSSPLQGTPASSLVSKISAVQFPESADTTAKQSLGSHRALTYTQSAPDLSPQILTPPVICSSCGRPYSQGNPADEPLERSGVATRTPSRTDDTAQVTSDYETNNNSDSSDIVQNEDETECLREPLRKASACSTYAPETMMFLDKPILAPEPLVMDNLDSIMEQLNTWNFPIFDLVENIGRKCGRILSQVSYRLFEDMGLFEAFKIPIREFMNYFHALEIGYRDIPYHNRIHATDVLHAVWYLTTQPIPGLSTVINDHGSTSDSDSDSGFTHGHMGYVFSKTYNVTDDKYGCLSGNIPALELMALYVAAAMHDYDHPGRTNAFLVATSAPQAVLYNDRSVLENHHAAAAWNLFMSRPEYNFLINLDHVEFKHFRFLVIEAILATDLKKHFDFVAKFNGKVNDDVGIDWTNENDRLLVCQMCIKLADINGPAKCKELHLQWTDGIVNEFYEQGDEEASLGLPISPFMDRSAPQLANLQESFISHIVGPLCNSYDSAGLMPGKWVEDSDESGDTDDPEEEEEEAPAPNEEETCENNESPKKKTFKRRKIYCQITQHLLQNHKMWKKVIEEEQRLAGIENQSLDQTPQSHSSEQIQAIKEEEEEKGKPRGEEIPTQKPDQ

[2] = Selectivity ratio of IC50 for inhibition of full-length human PDE3A expressed in Sf9 cells to EC50 for antiproliferative activity against human HeLa cells
SK-MEL3 = assay: Antiproliferative activity against human SK-MEL3 cells incubated for 72 hrs by Cell Titer Glo luminescence assay; format: functional, cell-based; conditions: SK-MEL3, 72 h
[3] = Metabolic stability in rat hepatocytes assessed as bioavailability at 1 uM measured upto 90 mins by LC-MS/MS analysis; format: ADME, Hepatocyte
[4] = Metabolic stability in mouse hepatocytes assessed as bioavailability at 1 uM measured upto 90 mins by LC-MS/MS analysis; format: ADME, Hepatocyte
[5] = Metabolic stability in dog hepatocytes assessed as bioavailability at 1 uM measured upto 90 mins by LC-MS/MS analysis; format: ADME, Canis lupus familiaris, Hepatocyte
[6] = Clearance in mouse blood; format: ADME, tissue-based
[7] = Metabolic stability in human hepatocytes assessed as bioavailability at 1 uM measured upto 90 mins by LC-MS/MS analysis; format: ADME, Hepatocyte

Structure (SMILES)	EC50 (HeLa)	IC50 [1]	EC50 (SK-MEL3)	predicted hepatic bioavailability (Fh) from hepatocyte stability at 1 µM [3]	Fh at 1.5 h, 1 µM [4]	Fh at 1.5 h, 1 µM [5]	clearance [6]	hepatic bioavailability predicted from hepatocyte stability (Fh) at 1 µM [7]	Ratio IC50/EC50 [2]
O=C1NN=C(c2ccc(N3CCOCC3)c(F)c2)CO1	6.9 nM	180 nM	15.6 nM	94%	47%	100%			26
C[C@@H]1CC(=O)NN=C1c1cc(F)c(N2CCOCC2)c(Cl)c1	0.35 nM	1.9 nM	0.9 nM	58%					5.5
O=C1CCC(c2cc(Cl)c(N3CCOCC3)c(Cl)c2)=NN1	6.9 nM		16.8 nM						8.5
O=C1NN=C(c2ccc(N3CCC(F)(F)CC3)c(C(F)(F)F)c2)CO1	1.59 nM		5.06 nM	67%	37%	28%			
C[C@@H]1CC(=O)NN=C1c1cc(F)c(N2CCOCC2)c(F)c1	0.97 nM	3.95 nM	2.07 nM	90%					4
O=C1NN=C(c2ccc(N3CCC(F)(F)CC3)c(F)c2)CO1	1.55 nM		3.85 nM	84%	19%		91.7 mL/min/kg	82%	178
O=C1NN=C(c2ccc(N3CCOCC3)c(C(F)(F)F)c2)CO1	1.87 nM	23 nM	3.4 nM	83%					12
Cc1cc(C2=NNC(=O)OC2)ccc1-c1ccc(F)cc1	4.94 nM		12.8 nM	88%	40%	48%		75%	44
O=C1CCC(c2ccc(N3CCOCC3)c(F)c2)=NN1	6.18 nM	190 nM	19.9 nM		80%				31
C[C@@H]1CC(=O)NN=C1c1ccc(N2CCCCC2)cc1	1.72 nM	217 nM	4.48 nM	27%					126
O=C1CCC(c2ccc(N3CCOCC3)cc2)=NN1	78.3 nM	> 1000 nM	101 nM						>12
C[C@@H]1CC(=O)NN=C1c1ccc(N2CCOCC2)c(F)c1	0.68 nM	12.7 nM	1.38 nM	94%					18

The next lines start with results.

EC50 (HeLa)	IC50 [1]	EC50 (SK-MEL3)	predicted hepatic bioavailability (Fh) from hepatocyte stability at 1 µM [3]	Fh at 1.5 h, 1 µM [4]	Fh at 1.5 h, 1 µM [5]	clearance [6]	hepatic bioavailability predicted from hepatocyte stability (Fh) at 1 µM [7]	Structure (SMILES)	Ratio IC50/EC50 [2]
1.83 nM	43 nM	2.6 nM	90%					C[C@@H]1OC(=O)NN=C1c1ccc(N2CCOCC2)c(F)c1	23
11.1 nM	> 1000 nM	0.25 nM	78%	53%	24%			C[C@@H]1OC(=O)NN=C1c1ccc(-c2ccc(Cl)cn2)c(C(F)(F)F)c1	>90
2.54 nM		7.95 nM	84%	38%	44%	5.83 mL/min/kg	70%	O=C1NN=C(c2ccc(-c3ccc(F)cc3)c(C(F)(F)F)c2)CO1	112
4.37 nM		6.31 nM						Cc1ccc(-c2ccc(C3=NNC(=O)O[C@H]3C)cc2C(F)(F)F)cn1	8
22.5 nM		39.8 nM						COc1ccc(-c2ccc(C3=NNC(=O)O[C@H]3C)cc2C(F)(F)F)cn1	4
0.68 nM	26.2 nM	1.14 nM						C[C@@H]1OC(=O)NN=C1c1ccc(-c2ccc(O)cc2)c(C(F)(F)F)c1	38
5.67 nM	222 nM	12.9 nM	85%	32%	68%		80%	O=C1NN=C(c2ccc(-c3ccc(F)cc3)c(OC(F)(F)F)c2)CO1	39
8.19 nM		15.1 nM						C[C@@H]1OC(=O)NN=C1c1ccc(-c2ccccc2F)c(C(F)(F)F)c1	18
21.8 nM		37.7 nM						COc1ccc(-c2ccc(C3=NNC(=O)O[C@H]3C)cc2C(F)(F)F)cc1	4.1
0.69 nM	76 nM	1.43 nM	83%	36%	56%	42 mL/min/kg	31%	C[C@@H]1OC(=O)NN=C1c1ccc(-c2ccnc(N)c2)c(C(F)(F)F)c1	109
3.42 nM		5.85 nM						C[C@@H]1OC(=O)NN=C1c1ccc(-c2cccc(F)c2)c(C(F)(F)F)c1	22
4.58 nM		6.13 nM						Cc1cc(-c2ccc(C3=NNC(=O)O[C@H]3C)cc2C(F)(F)F)ccn1	14
0.32 nM	55 nM	0.82 nM	11%	18%				C[C@@H]1OC(=O)NN=C1c1ccc(N2CCN(C)CC2)c(C(F)(F)F)c1	172
0.6 nM	67 nM	1.09 nM	93%	41%				C[C@@H]1OC(=O)NN=C1c1ccc(-c2ccncc2)c(C(F)(F)F)c1	112
1.48 nM	84 nM	3.6 nM	84%	54%				O=C1NN=C(c2ccc(-c3ccc(F)cc3)c(F)c2)CO1	57
0.34 nM	6.3 nM	0.77 nM	84%					C[C@@H]1OC(=O)NN=C1c1ccc(N2CCOCC2)c(C(F)(F)F)c1	18
38.7 nM		54.2 nM						Cc1ccncc1-c1ccc(C2=NNC(=O)O[C@H]2C)cc1C(F)(F)F	6
